Laboratory results: US10407381B2 (THE BOARD OF TRUSTEES OF THE UNIVERSITY OF ILLINOIS, priority 2015, dated 2019)
Read-outs that look alike come from different tables or passages of the source.

How the values were obtained:
human 5-HT2C-INI = target: T1, human 5-HT2C-INI (Homo sapiens, UniProt P28335); test: Calcium flux (FLIPR) assay, human 5-HT2C-INI stably expressed in HEK-293 (Flp-In-293) cells; conditions: human 5-HT2C-INI in HEK-293 cells, FLIPR; for EC50: NA = no activity at 10 μM; for Emax, % 5-HT 5-HT2C: normalized to 5-HT
T1 sequence (P28335 33-458): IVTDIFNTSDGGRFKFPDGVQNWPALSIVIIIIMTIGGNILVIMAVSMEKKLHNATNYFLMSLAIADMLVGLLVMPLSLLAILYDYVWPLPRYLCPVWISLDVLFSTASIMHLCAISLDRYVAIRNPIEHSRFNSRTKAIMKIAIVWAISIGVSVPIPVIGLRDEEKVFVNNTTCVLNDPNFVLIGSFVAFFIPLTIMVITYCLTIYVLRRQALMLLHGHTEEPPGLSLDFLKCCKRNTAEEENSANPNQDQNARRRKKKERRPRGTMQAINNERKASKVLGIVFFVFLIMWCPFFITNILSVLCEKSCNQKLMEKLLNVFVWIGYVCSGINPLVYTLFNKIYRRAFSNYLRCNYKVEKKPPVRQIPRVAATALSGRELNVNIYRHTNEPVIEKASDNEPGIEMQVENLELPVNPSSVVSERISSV

5-HT2B = 5-HT2B (Homo sapiens, UniProt P41595); test: Calcium flux (FLIPR) assay, human 5-HT2B stably expressed in HEK-293 (Flp-In-293) cells; conditions: for Emax, % 5-HT 5-HT2B: normalized to 5-HT
5-HT2A = 5-HT2A (Homo sapiens, UniProt P28223); test: Calcium flux (FLIPR) assay, human 5-HT2A stably expressed in HEK-293 (Flp-In-293) cells; conditions: for Emax, % 5-HT 5-HT2A: normalized to 5-HT
[1] = EC50, nM 5-HT2B, human 5-HT2B in HEK-293 cells, NA = no activity at 10 μM
[2] = EC50, nM 5-HT2A, human 5-HT2A in HEK-293 cells, FLIPR, NA = no activity at 10 μM
[3] = human 5-HT2A in HEK-293 cells, FLIPR
[4] = read-out: EC50, nM 5-HT2B, human 5-HT2B in HEK-293 cells, NA = no activity at 10 μM
[5] = read-out: EC50, nM 5-HT2A, human 5-HT2A in HEK-293 cells, FLIPR, NA = no activity at 10 μM

5-HT2B, sequence (P41595 whole entry): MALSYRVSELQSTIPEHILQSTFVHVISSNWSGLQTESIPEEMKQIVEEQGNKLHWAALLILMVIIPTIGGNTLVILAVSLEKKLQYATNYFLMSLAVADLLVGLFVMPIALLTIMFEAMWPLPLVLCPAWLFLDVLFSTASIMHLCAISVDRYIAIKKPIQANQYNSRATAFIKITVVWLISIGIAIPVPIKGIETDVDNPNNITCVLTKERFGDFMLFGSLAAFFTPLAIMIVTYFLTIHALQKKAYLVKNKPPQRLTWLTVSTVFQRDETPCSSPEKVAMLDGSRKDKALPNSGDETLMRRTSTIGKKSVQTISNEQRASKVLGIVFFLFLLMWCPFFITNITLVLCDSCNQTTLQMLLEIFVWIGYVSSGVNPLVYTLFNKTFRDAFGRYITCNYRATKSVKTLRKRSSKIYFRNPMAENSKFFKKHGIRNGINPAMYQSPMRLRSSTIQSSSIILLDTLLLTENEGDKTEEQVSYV
5-HT2A, sequence (P28223 whole entry): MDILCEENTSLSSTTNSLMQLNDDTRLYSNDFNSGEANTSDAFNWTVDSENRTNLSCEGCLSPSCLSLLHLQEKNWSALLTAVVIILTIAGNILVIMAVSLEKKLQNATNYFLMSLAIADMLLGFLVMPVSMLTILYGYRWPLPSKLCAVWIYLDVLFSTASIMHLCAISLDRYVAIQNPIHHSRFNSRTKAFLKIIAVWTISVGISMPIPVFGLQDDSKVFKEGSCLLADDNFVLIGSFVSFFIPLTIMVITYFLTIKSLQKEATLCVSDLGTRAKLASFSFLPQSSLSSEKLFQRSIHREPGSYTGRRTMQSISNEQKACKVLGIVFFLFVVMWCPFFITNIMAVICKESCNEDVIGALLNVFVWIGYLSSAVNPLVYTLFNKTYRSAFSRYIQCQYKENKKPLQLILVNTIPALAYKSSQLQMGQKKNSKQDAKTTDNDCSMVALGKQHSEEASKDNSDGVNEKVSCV

Structure (SMILES)	EC50 (human 5-HT2C-INI; EC50, nM 5-HT2C)	Emax, % 5-HT 5-HT2C (human 5-HT2C-INI)	EC50 (5-HT2B; [1])	Emax, % 5-HT 5-HT2B (5-HT2B; human 5-HT2B in HEK-293 cells)	EC50 (5-HT2A; [2])	Emax, % 5-HT 5-HT2A (5-HT2A; [3])	EC50 (5-HT2A)	EC50 (human 5-HT2C-INI; read-out: EC50, nM 5-HT2C)	EC50 (5-HT2B; [4])	EC50 (5-HT2A; [5])
C#CCOc1cc(F)c(Cl)cc1C1CC1CN (single isomer, unassigned; (+)) [(+)-Example 6, (+)-(2-(5-Chloro-4-fluoro-2-(prop-2-yn-1-yloxy)phenyl)cyclopropyl)methanamine]	67 nM	(80%) % 5-HT	1010 nM	(30%) % 5-HT	628 nM	(22%) % 5-HT	–	–	–	–
NCC1CC1c1cc(Cl)ccc1OCC(F)F (single isomer, unassigned; (+)) [(+)-Example 21, (+)-(2-(5-Chloro-2-(2,2-difluoroethoxy)phenyl)cyclopropyl)methanamine]	91 nM	(81%) % 5-HT	839 nM	(27%) % 5-HT	1810 nM	(31%) % 5-HT	–	–	–	–
NCC1CC1c1cc(Cl)c(Cl)cc1OCCF (single isomer, unassigned; (-)) [(−)-Example 34, (−)-(2-(4,5-Dichloro-2-(2-fluoroethoxy)phenyl)cyclopropyl)methanamine]	435 nM	(75%) % 5-HT	–	(12%) % 5-HT	–	(4%) % 5-HT	–	–	–	–
CCOc1ccc(Cl)cc1C1CC1CN (single isomer, unassigned; (+)) [(+)-Example 11, (+)-(2-(5-Chloro-2-ethoxyphenyl)cyclopropyl)methanamine]	13 nM	(91%) % 5-HT	86 nM	(45%) % 5-HT	1210 nM	(49%) % 5-HT	–	–	–	–
CCOc1ccc(F)c(F)c1C1CC1CN (single isomer, unassigned; (-)) [(−)-Example 46, (−)-(2-(6-Ethoxy-2,3-difluorophenyl)cyclopropyl)methanamine]	83 nM	(99%) % 5-HT	4270 nM	(30%) % 5-HT	2150 nM	(18%) % 5-HT	–	–	–	–
COc1cc(F)c(Cl)cc1[C@@H]1C[C@H]1CN (single isomer, unassigned) [(+)-Example 1, (+)-(2-(5-Chloro-4-fluoro-2-methoxyphenyl)cyclopropyl)methanamine]	7.6 nM	(97%) % 5-HT	25 nM	(59%) % 5-HT	81 nM	(93%) % 5-HT	–	–	–	–
CC(C)Oc1ccc(Cl)cc1C1CC1CN (single isomer, unassigned; (+)) [(+)-Example 14, (+)-(2-(5-Chloro-2-isopropoxyphenyl)cyclopropyl)methanamine]	91 nM	(86%) % 5-HT	997 nM	(37%) % 5-HT	4000 nM	(19%) % 5-HT	–	–	–	–
C=C(C)COc1ccc(Cl)cc1C1CC1CN (single isomer, unassigned; (+)) [(+)-Example 24, (+)-(2-(5-Chloro-2-((2-methylallyl)oxy)phenyl)cyclopropyl)methanamine]	212 nM	(90%) % 5-HT	422 nM	(32%) % 5-HT	–	(26%) % 5-HT	903 nM	–	–	–
COc1cc(F)c(Cl)cc1[C@@H]1C[C@H]1CN (single isomer, unassigned) [(−)-Example 1, (−)-(2-(5-Chloro-4-fluoro-2-methoxyphenyl)cyclopropyl)methanamine]	16 nM	(99%) % 5-HT	329 nM	(44%) % 5-HT	235 nM	(88%) % 5-HT	–	–	–	–
COc1cc(F)c(F)cc1[C@@H]1C[C@H]1CN (single isomer, unassigned) [(−)-Example 40, (−)-(2-(4,5-Difluoro-2-methoxyphenyl)cyclopropyl)methanamine]	–	(104%) % 5-HT	–	(59%) % 5-HT	511 nM	(76%) % 5-HT	–	–	–	–
COc1ccc(Cl)c(F)c1C1CC1CN (single isomer, unassigned; (-)) [(−)-Example 29, (−)-(2-(3-chloro-2-fluoro-6-methoxyphenyl)cyclopropyl)methanamine]	–	(93%) % 5-HT	–	(64%) % 5-HT	–	(86%) % 5-HT	–	3.8 nM	165 nM	68 nM
COc1ccc(F)c(F)c1C1CC1CN (single isomer, unassigned; (-)) [(−)-Example 45, (−)-(2-(2,3-Difluoro-6-methoxyphenyl)cyclopropyl)methanamine]	–	(108%) % 5-HT	–	(62%) % 5-HT	–	(72%) % 5-HT	–	16 nM	462 nM	461 nM
CCOc1ccc(Cl)c(F)c1C1CC1CN (single isomer, unassigned; (-)) [(−)-Example 30, (−)-(2-(3-Chloro-6-ethoxy-2-fluorophenyl)cyclopropyl)methanamine]	97 nM	(90%) % 5-HT	7420 nM	(51%) % 5-HT	819 nM	(31%) % 5-HT	–	–	–	–
CCOc1ccc(F)c(F)c1C1CC1CN (single isomer, unassigned; (+)) [(+)-Example 46, (+)-(2-(6-Ethoxy-2,3-difluorophenyl)cyclopropyl)methanamine]	7.2 nM	(107%) % 5-HT	288 nM	(48%) % 5-HT	1160 nM	(57%) % 5-HT	–	–	–	–
CCOc1ccc(F)c(Cl)c1C1CC1CN (single isomer, unassigned; (+)) [(+)-Example 51, (+)-(2-(2-Chloro-6-ethoxy-3-fluorophenyl)cyclopropyl)methanamine]	22 nM	(15%) % 5-HT	760 nM	(56%) % 5-HT	761 nM	(47%) % 5-HT	–	–	–	–
CCCOc1ccc(F)cc1C1CC1CN (single isomer, unassigned; (+)) [(+)-Example 7, (+)-(2-(5-Fluoro-2-propoxyphenyl)cyclopropyl)methanamine]	11 nM	(88%) % 5-HT	1990 nM	(33%) % 5-HT	1020 nM	(15%) % 5-HT	–	–	–	–
COc1ccc(Cl)c(Cl)c1C1CC1CN (single isomer, unassigned; (+)) [(+)-Example 36, (+)-(2-(2,3-Dichloro-6-methoxyphenyl)cyclopropyl)methanamine]	–	(98%) % 5-HT	–	(46%) % 5-HT	–	(76%) % 5-HT	–	21 nM	534 nM	203 nM
